{
  "source": "patent US20090264477A1",
  "about": "“BETA ADRENERGIC RECEPTOR AGONISTS FOR TREATMENT OF PAIN AND/OR INFLAMMATION” (Warsaw Orthopedic, Inc., An Indiana Corporation, priority 2008, published 2009)",
  "key": {"[1]": {"tested_on": "rat Chronic Constriction Injury model (Bennett Model)", "test": "von Frey test (mechanical threshold, mechanical allodynia) in rat Chronic Constriction Injury model", "assay_type": "in vivo, Wistar rats", "protocol": "(§1) The inventors evaluated the efficacy of a various beta-2-adrenergic receptor agonists and compared them to clonidine (an alpha-2-agonist) and saline in the rat Chronic Constriction Injury model (i.e., Bennett Model) using Wistar rats.\nHargreaves tests were conducted on days 7 and 14; […], where some drug compositions having predominantly beta-2 agonist activity were compared to clonidine a drug composition that has predominantly alpha-2 agonist activity and saline. The doses given would mimic those achievable by a continuous release drug depot containing a biodegradable polymer (7 rats in each group). […]\nFIG. 4 is a graphic representation of the mechanical threshold as a percentage from baseline in rats given clonidine 0.02 mg/kg, ritodrine 5 mg/kg, ritodrine 2 mg/kg, salbutamol 10 mg/kg, salbutamol 5 mg/kg, terbutaline 0.5 mg/kg, terbutaline 0.1 mg/kg, and saline subcutaneously every day for 15 days. […]"}, "[2]": {"tested_on": "rat Chronic Constriction Injury model (Bennett Model)", "test": "Hargreaves test (thermal paw withdrawal latency, thermal hyperalgesia) in rat Chronic Constriction Injury model", "assay_type": "in vivo, Wistar rats", "excerpt": "as §1, with “rats. The purpose: To determine whether the beta-2-adrenergic receptor agonists can improve pain associated behavioral responses in a rat model of neuropathic pain.” for “rats.”\nThe doses given would mimic those achievable by a continuous release drug depot containing a biodegradable polymer (7 rats in each group)."}, "[3]": {"conditions": "5 mg/kg subcutaneous every day for 15 days, day 14"}},
  "data": [
    {"smiles": "CC(C)(C)NCC(O)c1ccc(O)c(CO)c1", "note": "(centres unmarked) [salbutamol]", "values": [
      {"measurement": "pain behavioral response for mechanical allodynia (mechanical threshold, percentage of baseline) compared with saline group", "setting": "[1]; [3]", "value": "statistically significant result of decreasing pain responses"},
      {"measurement": "pain behavioral response for mechanical allodynia (mechanical threshold, percentage of baseline) compared with saline group", "setting": "[1]; 10 mg/kg subcutaneous every day for 15 days, days 8 and 15", "value": "statistically significant result of decreasing pain responses"},
      {"measurement": "pain behavioral response for thermal hyperalgesia (thermal paw withdrawal latency, percentage of baseline) compared with saline group", "setting": "[2]; 5 mg/kg subcutaneous every day for 15 days, days 7 and 14", "value": "statistically significant result of decreasing pain responses"},
      {"measurement": "pain behavioral response for thermal hyperalgesia (thermal paw withdrawal latency, percentage of baseline) compared with saline group", "setting": "[2]; 10 mg/kg subcutaneous every day for 15 days, days 7 and 14", "value": "statistically significant result of decreasing pain responses"}
    ]},
    {"smiles": "CC(NCCc1ccc(O)cc1)C(O)c1ccc(O)cc1", "note": "(centres unmarked) [ritodrine]", "values": [
      {"measurement": "pain behavioral response for mechanical allodynia (mechanical threshold, percentage of baseline) compared with saline group", "setting": "[1]; [3]", "value": "statistically significant result of decreasing pain responses"},
      {"measurement": "pain behavioral response for thermal hyperalgesia (thermal paw withdrawal latency, percentage of baseline) compared with saline group", "setting": "[2]; 2 mg/kg subcutaneous every day for 15 days, day 7", "value": "statistically significant result of decreasing pain responses"},
      {"measurement": "pain behavioral response for thermal hyperalgesia (thermal paw withdrawal latency, percentage of baseline) compared with saline group", "setting": "[2]; [3]", "value": "statistically significant result of decreasing pain responses"}
    ]},
    {"smiles": "CC(C)(C)NCC(O)c1cc(O)cc(O)c1", "note": "(centres unmarked) [terbutaline]", "values": [
      {"measurement": "pain behavioral response for mechanical allodynia (mechanical threshold, percentage of baseline) compared with saline group", "setting": "[1]; 0.5 mg/kg subcutaneous every day for 15 days, day 14", "value": "statistically significant result of decreasing pain responses"},
      {"measurement": "pain behavioral response for thermal hyperalgesia (thermal paw withdrawal latency, percentage of baseline) compared with saline group", "setting": "[2]; 0.1 mg/kg subcutaneous every day for 15 days, days 7 and 14", "value": "statistically significant result of decreasing pain responses"},
      {"measurement": "pain behavioral response for thermal hyperalgesia (thermal paw withdrawal latency, percentage of baseline) compared with saline group", "setting": "[2]; 0.5 mg/kg subcutaneous every day for 15 days, days 7 and 14", "value": "statistically significant result of decreasing pain responses"}
    ]},
    {"smiles": "Clc1cccc(Cl)c1N=C1NCCN1", "note": "[clonidine, 2,6-dichloro-N-2-imidazolidinyldenebenzenamine]", "values": [
      {"measurement": "pain behavioral response for thermal hyperalgesia (thermal paw withdrawal latency, percentage of baseline) compared with saline group", "setting": "[2]; 0.02 mg/kg subcutaneous every day for 15 days, day 14", "value": "statistically significant result of decreasing pain responses"}
    ]}
  ]
}
